Measurements: patent publication US8140141B2, “Devices and methods for fluorescent inspection and/or removal of material in a sample” (University of Utah Research Foundation, priority 2006, dated 2012)

Key:
[1] = conventional blue dyes for sentinel lymph node procedures, after injection into tissue; cited from earlier work
[2] = system: P-388 murine leukemia cells
[3] = system: HCT-116 human colon tumor cells

Row | Molecule | Passage out of lymphatic ducts into surrounding tissue [1] | Cellular uptake [2] | Cellular uptake [3]
1 | CCN(CC)c1ccc(C(=C2C=CC(=[N+](CC)CC)C=C2)c2cc(S(=O)(=O)[O-])ccc2S(=O)(=O)[O-])cc1.[Na+] [Lymphazurine] | tend to flow out of the lymphatic ducts into the surrounding tissue very quickly |  | 
2 | CN(C)c1ccc2nc3ccc(=[N+](C)C)cc-3sc2c1 [methylene blue] | tend to flow out of the lymphatic ducts into the surrounding tissue very quickly |  | 
3 | doxorubicin-cobalamin conjugate |  | can be observed | can be observed
